Reference: patent US10294229B2, “Heteroaryl substituted aminopyridine compounds” (BRISTOL-MYERS SQUIBB COMPANY, priority 2015, dated 2019)

Molecular target: IRAK4 (Homo sapiens (Human), UniProt Q9NWZ3)
Experiment: IRAK4 Inhibition Assay
Format: biochemical
Settings: ATP 500 μM; IRAK4 0.6 nM
Procedure, shortened: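 Enzyme 0.6 nM, ATP 500 μM, FL-peptide 1.5 μM, DMSO 1.6%; HEPES pH 7.2/MgCl2/Brij 35/DTT buffer. RT, 60 min, EDTA stop. Mobility-shift product/substrate ratio; % inhib vs no-enzyme and vehicle controls.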

Sequence of IRAK4 (Q9NWZ3 whole entry, species assumed): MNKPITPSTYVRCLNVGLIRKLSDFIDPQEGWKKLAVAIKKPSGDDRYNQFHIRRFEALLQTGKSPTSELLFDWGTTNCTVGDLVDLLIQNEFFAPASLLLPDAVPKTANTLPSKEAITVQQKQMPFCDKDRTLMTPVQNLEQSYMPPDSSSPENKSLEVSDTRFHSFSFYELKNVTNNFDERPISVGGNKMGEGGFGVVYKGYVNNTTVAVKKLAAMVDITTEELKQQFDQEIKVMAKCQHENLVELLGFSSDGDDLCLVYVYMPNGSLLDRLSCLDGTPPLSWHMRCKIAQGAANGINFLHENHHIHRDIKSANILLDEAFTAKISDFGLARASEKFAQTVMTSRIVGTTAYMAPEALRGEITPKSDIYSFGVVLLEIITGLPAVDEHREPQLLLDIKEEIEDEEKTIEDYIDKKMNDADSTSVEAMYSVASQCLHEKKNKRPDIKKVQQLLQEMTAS

| SMILES | IC50 [nM] |
| --- | --- |
| CCNc1cc(-n2ncc3cc(C#N)cnc32)ncc1-c1cn(C[C@H](C)O)nn1 [Example 71, (S)-1-(4-(ethylamino)-5-(1-(2-hydroxypropyl)-1H-1,2,3-triazol-4-yl)pyridin-2-yl)-1H-pyrazolo[3,4-b]pyridine-5-carbonitrile] | 40 |
| CC(C)Nc1cc(-n2cnc3cc(C#N)cnc32)ncc1-c1cn(CC(O)Cc2ccccc2)nn1 (single isomer, unassigned) [Example 78, 3-(5-(1-(2-hydroxy-3-phenylpropyl)-1H-1,2,3-triazol-4-yl)-4-(isopropylamino)pyridin-2-yl)-3H-imidazo[4,5-b]pyridine-6-carbonitrile] | 43 |
| CC(C)Nc1cc(-n2ncc3cc(C#N)cnc32)ncc1-n1cc(CO)nn1 [Example 295, 1-(5-(4-(hydroxymethyl)-1H-1,2,3-triazol-1-yl)-4-(isopropylamino)pyridin-2-yl)-1H-pyrazolo[3,4-b]pyridine-5-carbonitrile] | 48 |
| CC(C)Nc1cc(-n2ncc3cc(C(N)=O)cnc32)ncc1-c1cn([C@@H]2CCNC[C@@H]2O)nn1 [Example 187, 1-(5-(1-((3S,4R)-3-hydroxypiperidin-4-yl)-1H-1,2,3-triazol-4-yl)-4-(isopropylamino)pyridin-2-yl)-1H-pyrazolo[3,4-b]pyridine-5-carboxamide] | 302 |
| CC(C)Nc1cc(-n2ncc3cc(C#N)cnc32)ncc1-n1cc(CN2CCOCC2)nn1 [Example 301, 1-(4-(isopropylamino)-5-(4-(morpholinomethyl)-1H-1,2,3-triazol-1-yl)pyridin-2-yl)-1H-pyrazolo[3,4-b]pyridine-5-carbonitrile] | 22 |
| CC(C)Nc1cc(-n2cnc3cc(C#N)cnc32)ncc1-c1cn(CC(O)Cc2ccccc2)nn1 (single isomer, unassigned) [Example 79, 3-(5-(1-(2-hydroxy-3-phenylpropyl)-1H-1,2,3-triazol-4-yl)-4-(isopropylamino)pyridin-2-yl)-3H-imidazo[4,5-b]pyridine-6-carbonitrile] | 26 |
| CC(C)CCn1cc(-c2cnc(-n3ncc4cc(Cl)cnc43)cc2NC(C)C)nn1 [Example 217, 2-(5-chloro-1H-pyrazolo [3,4-b]pyridin-1-yl)-5-(1-isopentyl-1H-1,2,3-triazol-4-yl)-N-isopropylpyridin-4-amine] | 6 |
| CC(C)Nc1cc(-n2cnc3cc(C#N)cnc32)ncc1-c1cn(C2CCOCC2)nn1 [Example 24, 3-(4-(isopropylamino)-5-(1-(tetrahydro-2H-pyran-4-yl)-1H-1,2,3-triazol-4-yl)pyridin-2-yl)-3H-imidazo[4,5-b]pyridine-6-carbonitrile] | 3 |
| CC(C)Nc1cc(-n2ncc3cc(C#N)cnc32)ncc1-c1cn(Cc2ccc(F)cc2)nn1 [Example 112, 1-(5-(1-(4-fluorobenzyl)-1H-1,2,3-triazol-4-yl)-4-(isopropylamino)pyridin-2-yl)-1H-pyrazolo[3,4-b]pyridine-5-carbonitrile] | 76 |
| CC(O)Cc1cn(-c2cnc(-n3ncc4cc(C#N)cnc43)cc2NC(C)C)nn1 (centres unmarked) [Example 268, 1-(5-(4-(2-hydroxypropyl)-1H-1,2,3-triazol-1-yl)-4-(isopropylamino)pyridin-2-yl)-1H-pyrazolo[3,4-b]pyridine-5-carbonitrile] | 38 |
| COC(=O)N1CC[C@@H](n2cc(-c3cnc(-n4ncc5cc(C#N)cnc54)cc3NC(C)C)nn2)[C@H](O)C1 (single isomer, unassigned) [Example 201] | 4 |
| CCCc1cn(-c2cnc(-n3ncc4cc(C#N)cnc43)cc2N[C@@H](C)CO)nn1 [Example 273, (S)-1-(4-((1-hydroxypropan-2-yl)amino)-5-(4-propyl-1H-1,2,3-triazol-1-yl)pyridin-2-yl)-1H-pyrazolo[3,4-b]pyridine-5-carbonitrile] | 78 |
| CC(C)Nc1cc(-n2cnc3cc(C#N)cnc32)ncc1-c1cn(C(C)(C)C)nn1 [Example 23, 3-(5-(1-(tert-butyl)-1H-1,2,3-triazol-4-yl)-4-(isopropylamino)pyridin-2-yl)-3H-imidazo[4,5-b]pyridine-6-carbonitrile] | 96 |
| CC(C)Nc1cc(-n2ncc3cc(C#N)cnc32)ncc1-c1cn(CC(=O)N2CCOCC2)nn1 [Example 101, 1-(4-(isopropylamino)-5-(1-(2-morpholino-2-oxoethyl)-1H-1,2,3-triazol-4-yl)pyridin-2-yl)-1H-pyrazolo[3,4-b]pyridine-5-carbonitrile] | 5 |
| CCCc1cn(-c2cnc(-n3cnc4cnc(N)nc43)cc2NC(C)C)nn1 [Example 279, 9-(4-(isopropylamino)-5-(4-propyl-1H-1,2,3-triazol-1-yl)pyridin-2-yl)-9H-purin-2-amine] | 17 |
| CC(C)Nc1cc(-n2ncc3cc(C#N)cnc32)ncc1-c1cn(Cc2ccccn2)cn1 [Example 239, 1-(4-(isopropylamino)-5-(1-(pyridin-2-ylmethyl)-1H-imidazol-4-yl)pyridin-2-yl)-1H-pyrazolo[3,4-b]pyridine-5-carbonitrile] | 34 |
| CC(O)Cc1cn(-c2cnc(-n3ncc4cc(C#N)cnc43)cc2NC2CC2)nn1 (single isomer, unassigned) [Example 274, 1-(4-(cyclopropylamino)-5-(4-(2-hydroxypropyl)-1H-1,2,3-triazol-1-yl)pyridin-2-yl)-1H-pyrazolo[3,4-b]pyridine-5-carbonitrile] | 23 |
| CC(C)Nc1cc(-n2ncc3cc(C#N)cnc32)ncc1-c1cn(CC(=O)N2CCN(S(C)(=O)=O)CC2)nn1 [Example 193, 1-(4-(isopropylamino)-5-(1-(2-(4-(methylsulfonyl)piperazin-1-yl)-2-oxoethyl)-1H-1,2,3-triazol-4-yl)pyridin-2-yl)-1H-pyrazolo[3,4-b]pyridine-5-carbonitrile] | 4 |
| CC(C)Nc1cc(-n2ncc3cc(C#N)cnc32)ncc1-c1cnn(CC(F)(F)F)c1 [Example 255, 1-(4-(isopropylamino)-5-(1-(2,2,2-trifluoroethyl)-1H-pyrazol-4-yl)pyridin-2-yl)-1H-pyrazolo[3,4-b]pyridine-5-carbonitrile] | 39 |
| COC(=O)c1ccccc1-n1cc(-c2cnc(-n3ncc4cc(C#N)cnc43)cc2NC(C)C)nn1 [Example 175, methyl 2-(4-(6-(5-cyano-1H-pyrazolo[3,4-b]pyridin-1-yl)-4-(isopropylamino)pyridin-3-yl)-1H-1,2,3-triazol-1-yl)benzoate] | 35 |
| CC(C)Nc1cc(-n2ncc3cc(C#N)cnc32)ncc1-c1cn(CC(O)Cc2ccccc2)nn1 (single isomer, unassigned) [Example 77, 1-(5-(1-(2-hydroxy-3-phenylpropyl)-1H-1,2,3-triazol-4-yl)-4-(isopropylamino)pyridin-2-yl)-1H-pyrazolo [3,4-b]pyridine-5-carbonitrile] | 21 |
| CC(C)Nc1cc(-n2ncc3cncnc32)ncc1-c1cnn(CC(F)(F)F)c1 [Example 262, N-isopropyl-2-(1H-pyrazolo[3,4-d]pyrimidin-1-yl)-5-(1-(2,2,2-trifluoroethyl)-1H-pyrazol-4-yl)pyridin-4-amine] | 288 |
| CCCn1cc(-c2cnc(-n3cnc4cc(C#N)cnc43)cc2NC2CC2)nn1 [Example 43, 3-(4-(cyclopropylamino)-5-(1-propyl-1H-1,2,3-triazol-4-yl)pyridin-2-yl)-3H-imidazo[4,5-b]pyridine-6-carbonitrile] | 6 |
